Laboratory results as given in patent publication US20030036562A1, “Water-soluble dendrimeric fullerene as anti-HIV therapeutic” (priority 2001, published 2003).
Where two headings read alike, the source gives them in different places.

How the values were obtained:
[1] = molecular target: T1, recombinant HIV-1 p66/51 reverse transcriptase (Human immunodeficiency virus type 1 group M subtype B, UniProt P04585); experiment: Inhibition of p66/51 reverse transcriptase; assay type: biochemical
T1 construct: recombinant HIV-1 p66/51 reverse transcriptase

M184V (3TC resistant) = conditions: cited from earlier work
HIV-1 (wild type) = conditions: FDA-approved drugs; cited from earlier work
RT = RT (Human immunodeficiency virus type 1 group M subtype B, UniProt P04585); conditions: FDA-approved drugs; cited from earlier work
H9 cells = conditions: cited from earlier work
Vero cells = conditions: cited from earlier work
[2] = system: CEM (human lymphoblastoid) cells; conditions: cited from earlier work
Protease = molecular target: T2, Protease (Human immunodeficiency virus type 1 group M subtype B, UniProt P04585); conditions: FDA-approved drugs; cited from earlier work
T2 construct: Protease

[3] = in vivo; cited from earlier work
[4] = cited from earlier work
Anti-C60 = conditions: measured inhibition of bovine thyroglobulin-fullerene conjugate binding by test compound; cited from earlier work
[5] = M184V, common RT mutant, FDA-approved drugs, read-out: EC50

## Cc1cn([C@H]2C[C@H](N=[N+]=[N-])[C@@H](CO[P@](=O)(O)O[P@](=O)(O)OP(=O)(O)O)O2)c(=O)[nH]c1=O [AZTTP]
[1]; 0.001 μM
  inhibition at 0.001 µM: 8%
[1]; 0.01 μM
  inhibition at 0.01 µM: 35.7%
[1]; 0.1 μM
  inhibition at 0.1 µM: 72.7%
[1]; 1 μM
  inhibition at 1 µM: 97%
[1]; 10 μM
  inhibition at 10 µM: 99.6%
[1]; p66/51 1 unit/rxn, (rA)n.(dT)12-18
  1C 90: 0.27 µM
[1]; p66/51 1 unit/rxn, (rA)n.(dT)12-18, read-out: 1C 50
  IC50: 21 nM

## Cc1cn([C@H]2C[C@H](N=[N+]=[N-])[C@@H](CO)O2)c(=O)[nH]c1=O [AZT]
[1]; poly (rA)n oligo (dT)12 template primer, text b87, unit inferred, read-out: IC50 against RT
  IC50: 21 nM
M184V (3TC resistant); [5]
  EC50: 10 nM
HIV-1 (wild type)
  EC50: 50 nM
RT
  RT Inhibitor: yes
H9 cells
  cytotoxicity (in words): cytotoxic
Vero cells
  cytotoxicity (in words): cytotoxic
[2]
  cytotoxicity (in words): cytotoxic

## CC(C)CN(C[C@@H](O)[C@H](Cc1ccccc1)NC(=O)O[C@H]1CCOC1)S(=O)(=O)c1ccc(N)cc1 [Amprenavir]
M184V (3TC resistant); [5]
  EC50: 500 nM
HIV-1 (wild type)
  EC50: 54 nM
Protease
  Protease Inhibitor: yes

## Nc1ccn([C@@H]2CS[C@H](CO)O2)c(=O)n1 [Compound 3TC, 3TC]
M184V (3TC resistant); [5]
  EC50: > 100000 nM
M184V (3TC resistant); text b84, unit inferred, read-out: activity against M184V
  EC50: > 100000 nM
HIV-1 (wild type)
  EC50: 180 nM

## CC(C)(C)NC(=O)[C@@H]1CN(Cc2cccnc2)CCN1C[C@@H](O)C[C@@H](Cc1ccccc1)C(=O)N[C@H]1c2ccccc2C[C@H]1O [Indinavir]
HIV-1 (wild type)
  EC50: ~100 nM
Protease
  Protease Inhibitor: yes

## Cc1c(O)cccc1C(=O)N[C@@H](CSc1ccccc1)[C@H](O)CN1C[C@H]2CCCC[C@H]2C[C@H]1C(=O)NC(C)(C)C [Nelfinavir]
M184V (3TC resistant); [5]
  EC50: 400 nM
Protease
  Protease Inhibitor: yes
[3]
  Oral Bioavailability: 52%

## CC(C)c1nc(CN(C)C(=O)N[C@H](C(=O)N[C@@H](Cc2ccccc2)C[C@H](O)[C@H](Cc2ccccc2)NC(=O)OCc2cncs2)C(C)C)cs1 [Ritonavir]
M184V (3TC resistant); [5]
  EC50: 800 nM
HIV-1 (wild type)
  EC50: 45 nM
Protease
  Protease Inhibitor: yes
[3]
  Oral Bioavailability: ˜78%

## CC(C)(C)NC(=O)[C@@H]1C[C@@H]2CCCC[C@@H]2CN1C[C@@H](O)[C@H](Cc1ccccc1)NC(=O)[C@H](CC(N)=O)NC(=O)c1ccc2ccccc2n1 [Saquinavir]
Protease
  Protease Inhibitor: yes
[3]
  Oral Bioavailability: ˜4%

## c12c3c4c5c1c1c6c7c2c2c8c3c3c9c4c4c%10c5c5c1c1c6c6c%11c7c2c2c7c8c3c3c8c9c4c4c9c%10c5c5c1c1c6c6c%11c2c2c7c3c3c8c4c4c9c5c1c1c6c2c3c41 [unmodified C60, C60]
[4]
  toxicity in vivo (in words): non toxic even at high doses

## C3-carboxyfullerene
Anti-C60
  Kd: 250 µg/mL

## D3-carboxyfullerene
Anti-C60
  Kd: 38 µg/mL

## fullerenol [C]
Anti-C60
  Kd: 750 µg/mL
